{"source": "patent US8846570B2", "about": "“Herbicidal compositions comprising 4-amino-3-chloro-5-fluoro-6-(4-chloro-2-fluoro-3-methoxyphenyl)pyridine-2-carboxylic acid or a derivative thereof and microtubule inhibiting herbicides” (Dow AgroSciences LLC, priority 2012, dated 2014)", "key": {"[1]": {"test_system": "Ipomoea hederacea (L.) Jacq. (IPOHE)", "experiment": "Pre-emergence soil-applied, greenhouse: visual weed control", "assay_type": "in vivo", "conditions": "for Visual Weed Control (%) - 33 DAA IPOHE Obs: soil-applied pre-emergence", "description": "Seeds or nutlets of the desired test plant species were planted in a soil matrix prepared by mixing a loam soil (e.g., 32 percent silt, 23 percent clay, and 45 percent sand, with a pH of about 6.5 and an organic matter content of about 1.9 percent) and calcareous grit in an 80 to 20 ratio. The soil matrix was contained in plastic pots with a volume of 1 quart and a surface area of 83.6 square centimeters (cm^2).\nForms of compound A were applied on an acid equivalent basis.\n(§1) For treatments comprised of formulated compounds, measured amounts of compounds were placed individually in 25 mL glass vials and diluted in a volume of 1.25% (v/v) Agri-Dex® crop oil concentrate (COC) to obtain 12× stock solutions. […] Application solutions were prepared by adding an appropriate amount of each stock solution (e.g., 1 mL) and diluted to the appropriate final concentrations with the addition of 10 mL of an aqueous mixture of 1.25% (v/v) COC so that the final spray solutions contained 1.25% (v/v) COC.\nFor treatments comprised of formulated and technical compounds, weighed amounts of the technical materials were placed individually in 25 mL glass vials and dissolved in a volume of 97:3 (v/v) acetone/DMSO to obtain 12× stock solutions, and measured amounts of the formulated compounds were placed individually in 25 mL glass vials and diluted in a volume of 1.5% (v/v) COC or water to obtain 12× stock solutions. […] Application solutions were prepared by adding an appropriate amount of each stock solution (e.g., 1 mL) and diluted to the appropriate final concentrations with the addition of an appropriate amount of an aqueous mixture of 1.5% (v/v) COC so that the final spray solutions contained 1.25% (v/v) COC. As required, additional water and/or 97:3 (v/v) acetone/DMSO was added to individual application solutions so that the final acetone and DMSO concentrations of the application solutions being compared were 8.1% and 0.25%, respectively.\nAll stock solutions and applications solutions were visually inspected for compound compatibility prior to application. Spray solutions were applied to the soil with an overhead Mandel track sprayer equipped with a 8002E nozzles calibrated to deliver 187 L/ha over an application area of 0.503 m^2 at a spray height of 18 inches (46 cm) above average pot height. Control pots were sprayed in the same manner with the solvent blank.\nThe treated and control pots were placed in a greenhouse and top watered as needed. […] The pots were maintained in a greenhouse with an approximate 14 hr photoperiod which was maintained at about 29° C. during the day and 26° C. during the night. Nutrients (Peters® Excel 15-5-15 5-Ca 2-Mg) were applied in the irrigation solution as needed and water was added on a regular basis. Supplemental lighting was provided with overhead metal halide 1000-Watt lamps as necessary. After approximately 4 weeks, the condition of the test plants as compared with that of the untreated plants was determined visually and scored on a scale of 0 to 100 percent where 0 corresponds to no injury or growth inhibition and 100 corresponds to complete kill.\n(§2) Colby's equation was used to determine the herbicidal effects expected from the mixtures (Colby, S. R. 1967. Calculation of the synergistic and antagonistic response of herbicide combinations. Weeds 15:20-22.).\n(§3) The following equation was used to calculate the expected activity of mixtures containing two active ingredients, A and B: Expected=A+B−(A×B/100)"}, "[2]": {"test_system": "Leptochloa chinensis (L.) Nees (LEFCH)", "experiment": "Postemergence foliar-applied, direct seeded rice, greenhouse: visual weed control", "assay_type": "in vivo", "conditions": "19 DAA", "description": "Seeds or nutlets of the desired test plant species were planted in a soil matrix prepared by mixing a loam or sandy loam soil (e.g., 28.6 percent silt, 18.8 percent clay, and 52.6 percent sand, with a pH of about 5.8 and an organic matter content of about 1.8 percent) and calcareous grit in an 80 to 20 ratio. The soil matrix was contained in plastic pots with a volume of 1 quart and a surface area of 83.6 cm^2. When required to ensure good germination and healthy plants, a fungicide treatment and/or other chemical or physical treatment was applied. The plants were grown for 8-22 days in a greenhouse with an approximate 14 h photoperiod which was maintained at about 29° C. during the day and 26° C. during the night. Nutrients (Peters Excel® 15-5-15 5-Ca 2-Mg and iron chelate) were applied in the irrigation solution as needed and water was added on a regular basis. Supplemental lighting was provided with overhead metal halide 1000-Watt lamps as necessary. The plants were employed for testing when they reached the first through fourth true leaf stage.\nTreatments consisted of the acid or esters of 4-amino-3-chloro-5-fluoro-6-(4-chloro-2-fluoro-3-methoxy-phenyl)pyridine-2-carboxylic acid (Compound A), each formulated as an SC (suspension concentrate), and various herbicidal components alone and in combination. Forms of compound A were applied on an acid equivalent basis.\nTreatment requirements were calculated based upon the rates being tested, the concentration of active ingredient or acid equivalent in the formulation, and a 12 mL application volume at a rate of 187 L/ha.\nas §1, with “oil concentrated” for “oil concentrate (COC)”, “(v/v) crop oil concentrate” for “(v/v) COC”, “contained 1.25+/−0.05%” for “contained 1.25%”, “(v/v) crop oil concentrate.” for “(v/v) COC.”\nAs required, additional water and/or 97:3 v/v acetone/DMSO was added to individual application solutions so that the final acetone and DMSO concentrations of the application solutions being compared were 8.1% and 0.25%, respectively.\nAll stock solutions and applications solutions were visually inspected for compound compatibility prior to application. Spray solutions were applied to the plant material with an overhead Mandel track sprayer equipped with a 8002E nozzles calibrated to deliver 187 L/ha over an application area of 0.503 m^2 at a spray height of 18 to 20 inches (46 to 50 cm) above average plant canopy height. Control plants were sprayed in the same manner with the solvent blank.\nThe treated plants and control plants were placed in a greenhouse as described above and watered by sub-irrigation to prevent wash-off of the test compounds. After approximately 3 weeks, the condition of the test plants as compared with that of the untreated plants was determined visually and scored on a scale of 0 to 100 percent where 0 corresponds to no injury or growth inhibition and 100 corresponds to complete kill.\nas §2, §3"}}}
{"molecule": "COc1c(Cl)ccc(-c2nc(C(=O)OCc3ccccc3)c(Cl)c(N)c2F)c1F", "note": "[Compound A Benzyl Ester, benzyl ester of 4-amino-3-chloro-5-fluoro-6-(4-chloro-2-fluoro-3-methoxy-phenyl)pyridine-2-carboxylic acid]", "values": [{"measurement": "Visual Weed Control (%) Obs", "setting": "[1]; 27 DAA, 16 g ae/ha", "value": 20, "unit": "%"}, {"measurement": "Visual Weed Control (%) Obs", "setting": "[1]; 27 DAA, 32 g ae/ha", "value": 40, "unit": "%"}, {"measurement": "Visual Weed Control (%) Obs", "setting": "[1]; 33 DAA, 16 g ae/ha", "value": 0, "unit": "%"}, {"measurement": "Visual Weed Control (%) Obs", "setting": "[1]; 33 DAA, 32 g ae/ha", "value": 5, "unit": "%"}, {"measurement": "Visual Weed Control (%) - 33 DAA IPOHE Obs", "setting": "[1]; Compound A Benzyl Ester 16 g ae/ha alone, 33 DAA", "value": 0, "unit": "%"}, {"measurement": "Visual Weed Control (%) - 33 DAA IPOHE Obs", "setting": "[1]; Compound A Benzyl Ester 32 g ae/ha alone, 33 DAA", "value": 5, "unit": "%"}, {"measurement": "Visual Weed Control (%) Obs", "setting": "[2]; 4.38 g ae/ha", "value": 0, "unit": "%"}, {"measurement": "Visual Weed Control (%) Obs", "setting": "[2]; 8.75 g ae/ha", "value": 25, "unit": "%"}, {"measurement": "Visual Weed Control (%) Obs", "setting": "[2]; 17.5 g ae/ha", "value": 30, "unit": "%"}]}
{"molecule": "CSC(=O)c1c(C(F)F)nc(C(F)(F)F)c(C(=O)SC)c1CC(C)C", "note": "[Dithiopyr, S,S′-dimethyl-2-(difluoromethyl)-4-(2-methylpropyl)-6-(trifluoromethyl)-3,5-pyridinedicarbothioate]", "values": [{"measurement": "Visual Weed Control (%) Obs", "setting": "[1]; 27 DAA, 140 g ai/ha", "value": 3, "unit": "%"}, {"measurement": "Visual Weed Control (%) Obs", "setting": "[1]; 27 DAA, 280 g ai/ha", "value": 20, "unit": "%"}]}
{"molecule": "CCC(CC)Nc1c([N+](=O)[O-])cc(C)c(C)c1[N+](=O)[O-]", "note": "[Pendimethalin, N-(1-ethylpropyl)-3,4-dimethyl-2,6-dinitrobenzenamine, reference compound]", "values": [{"measurement": "Visual Weed Control (%) Obs", "setting": "[2]; 140 g ai/ha", "value": 0, "unit": "%"}, {"measurement": "Visual Weed Control (%) Obs", "setting": "[2]; 280 g ai/ha", "value": 20, "unit": "%"}, {"measurement": "Visual Weed Control (%) Obs", "setting": "[2]; 560 g ai/ha", "value": 80, "unit": "%"}]}
